Active and inactive are the calls of the source. No cut-off for these calls is given here.
Key:
[1] = Unbound clearance in dog plasma at 0.3 mg/kg, iv via infusion for 0.5 hrs; type: ADME, organism-based, Canis lupus familiaris; conditions: in vivo
[2] = target: Prostaglandin G/H synthase 2 (Homo sapiens) (UniProt P35354); assay: Inhibition of recombinant human COX2 at 10 uM using arachidonic acid as substrate measured after 5 mins by fluorescence assay
[3] = Renal clearance in rat at 0.3 mg/kg, iv via infusion for 1 hr; type: ADME, organism-based, Kidney; conditions: in vivo
[4] = target: Sodium channel protein type 5 subunit alpha (Homo sapiens, UniProt Q14524); assay: Inhibition of human Nav1.5 by Q-patch clamp electrophysiology method
Sequence of Sodium channel protein type 5 subunit alpha (Q14524 whole entry): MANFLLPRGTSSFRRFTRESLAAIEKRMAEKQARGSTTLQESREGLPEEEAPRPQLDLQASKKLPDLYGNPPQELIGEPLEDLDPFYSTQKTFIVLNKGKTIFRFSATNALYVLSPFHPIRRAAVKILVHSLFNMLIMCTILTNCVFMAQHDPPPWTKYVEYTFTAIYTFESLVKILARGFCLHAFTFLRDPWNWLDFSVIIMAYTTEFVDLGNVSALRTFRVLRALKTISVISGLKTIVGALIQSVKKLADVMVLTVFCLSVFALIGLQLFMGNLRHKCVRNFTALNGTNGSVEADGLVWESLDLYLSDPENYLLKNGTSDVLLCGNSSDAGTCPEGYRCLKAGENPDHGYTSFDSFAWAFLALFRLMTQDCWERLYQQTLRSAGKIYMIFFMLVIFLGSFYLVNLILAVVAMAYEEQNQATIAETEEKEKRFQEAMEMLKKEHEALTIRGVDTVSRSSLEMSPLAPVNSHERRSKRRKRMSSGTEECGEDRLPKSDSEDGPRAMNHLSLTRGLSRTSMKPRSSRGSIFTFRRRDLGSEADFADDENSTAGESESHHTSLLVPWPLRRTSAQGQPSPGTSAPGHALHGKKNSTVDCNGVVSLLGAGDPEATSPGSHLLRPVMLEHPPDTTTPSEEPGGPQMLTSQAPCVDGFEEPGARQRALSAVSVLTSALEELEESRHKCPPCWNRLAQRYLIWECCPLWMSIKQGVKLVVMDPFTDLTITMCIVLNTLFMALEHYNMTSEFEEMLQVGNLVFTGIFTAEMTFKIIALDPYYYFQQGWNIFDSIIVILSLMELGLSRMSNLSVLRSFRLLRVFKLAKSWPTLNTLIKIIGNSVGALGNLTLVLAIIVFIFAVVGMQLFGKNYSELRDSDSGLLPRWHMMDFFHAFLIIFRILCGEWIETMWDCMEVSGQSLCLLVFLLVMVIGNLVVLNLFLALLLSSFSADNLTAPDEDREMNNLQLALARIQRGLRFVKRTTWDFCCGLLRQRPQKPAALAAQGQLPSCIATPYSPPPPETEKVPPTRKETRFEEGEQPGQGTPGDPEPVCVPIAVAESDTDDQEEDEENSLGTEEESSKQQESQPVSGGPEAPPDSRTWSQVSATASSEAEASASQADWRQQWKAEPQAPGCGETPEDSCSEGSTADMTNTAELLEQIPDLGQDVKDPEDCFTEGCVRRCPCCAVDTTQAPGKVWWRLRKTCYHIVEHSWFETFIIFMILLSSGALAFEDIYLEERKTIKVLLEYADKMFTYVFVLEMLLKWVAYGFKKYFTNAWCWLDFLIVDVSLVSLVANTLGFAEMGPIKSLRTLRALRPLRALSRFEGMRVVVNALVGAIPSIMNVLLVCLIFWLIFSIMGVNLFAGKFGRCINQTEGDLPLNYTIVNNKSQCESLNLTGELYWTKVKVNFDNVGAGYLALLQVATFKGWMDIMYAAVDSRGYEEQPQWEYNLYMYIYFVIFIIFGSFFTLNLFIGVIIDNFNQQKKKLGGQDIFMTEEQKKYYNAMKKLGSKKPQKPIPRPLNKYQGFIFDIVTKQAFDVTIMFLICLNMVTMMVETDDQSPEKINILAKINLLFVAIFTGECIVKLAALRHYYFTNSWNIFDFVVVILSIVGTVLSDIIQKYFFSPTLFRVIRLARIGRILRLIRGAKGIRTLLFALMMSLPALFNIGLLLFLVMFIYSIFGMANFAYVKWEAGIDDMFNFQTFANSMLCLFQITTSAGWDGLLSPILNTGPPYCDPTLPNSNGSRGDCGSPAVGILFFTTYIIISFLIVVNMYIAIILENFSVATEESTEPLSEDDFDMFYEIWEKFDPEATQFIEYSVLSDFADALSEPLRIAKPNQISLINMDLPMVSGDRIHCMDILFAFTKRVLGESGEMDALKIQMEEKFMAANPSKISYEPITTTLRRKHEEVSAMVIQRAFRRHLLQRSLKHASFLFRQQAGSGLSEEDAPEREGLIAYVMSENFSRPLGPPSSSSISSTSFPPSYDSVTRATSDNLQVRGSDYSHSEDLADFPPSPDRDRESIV

[5] = system: Mus musculus; assay: Analgesic activity in mouse assessed as inhibition of formalin-induced pain at 0.28 to 5.4 mg/kg, iv pretreated for 90 mins followed by formalin addition measured up to 40 mins; type: functional, organism-based
[6] = Solubility of the compound in aqueous buffer at pH 7.1; type: physicochemical
[7] = Volume of distribution at steady state in rat at 0.3 mg/kg, iv via infusion for 1 hr; type: ADME, organism-based; conditions: in vivo, read-out: Vdss
[8] = target: Sodium-dependent noradrenaline transporter (Homo sapiens, UniProt P23975); assay: Displacement of [3H]nisoxetine from recombinant human norepinephrine transporter at 10 uM after 120 min by scintillation counting method
[9] = target: Type-1 angiotensin II receptor (Homo sapiens) (UniProt P30556); assay: Antagonist activity at recombinant human AT1 receptor expressed in HEK293 cells assessed as inhibition of angiotensin2-induced calcium flux at 10 uM by spectrophotometric method relative to control; type: functional, cell-based
[10] = target: Beta-1 adrenergic receptor (Homo sapiens) (UniProt P08588); assay: Agonist activity at recombinant human beta1 receptor expressed in HEK293 cells assessed as increase in cAMP accumulation at 10 uM after 30 mins by HTRF assay relative to control; type: functional, cell-based
Sequence of Beta-1 adrenergic receptor (Homo sapiens) (P08588 whole entry, looked up): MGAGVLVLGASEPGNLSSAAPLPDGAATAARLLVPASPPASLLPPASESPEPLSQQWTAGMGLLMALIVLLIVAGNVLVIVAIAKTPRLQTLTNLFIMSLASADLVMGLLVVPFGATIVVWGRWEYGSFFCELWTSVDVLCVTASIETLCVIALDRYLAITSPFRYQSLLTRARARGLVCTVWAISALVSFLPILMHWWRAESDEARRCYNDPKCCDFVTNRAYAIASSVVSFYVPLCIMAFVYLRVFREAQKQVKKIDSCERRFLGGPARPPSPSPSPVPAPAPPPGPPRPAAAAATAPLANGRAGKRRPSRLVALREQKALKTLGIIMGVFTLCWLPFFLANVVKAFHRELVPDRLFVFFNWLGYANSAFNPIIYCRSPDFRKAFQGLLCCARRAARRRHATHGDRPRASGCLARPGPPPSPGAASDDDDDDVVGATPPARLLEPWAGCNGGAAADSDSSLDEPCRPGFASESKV

[11] = Intrinsic clearance in human liver microsomes; type: ADME, microsome; conditions: read-out: CLH
[12] = target: High affinity choline transporter 1 (Homo sapiens, UniProt Q9GZV3); assay: Displacement of [3H]hemicholinium-3 from recombinant human choline transporter after 60 mins by scintillation counting method
Sequence of High affinity choline transporter 1 (Q9GZV3 whole entry): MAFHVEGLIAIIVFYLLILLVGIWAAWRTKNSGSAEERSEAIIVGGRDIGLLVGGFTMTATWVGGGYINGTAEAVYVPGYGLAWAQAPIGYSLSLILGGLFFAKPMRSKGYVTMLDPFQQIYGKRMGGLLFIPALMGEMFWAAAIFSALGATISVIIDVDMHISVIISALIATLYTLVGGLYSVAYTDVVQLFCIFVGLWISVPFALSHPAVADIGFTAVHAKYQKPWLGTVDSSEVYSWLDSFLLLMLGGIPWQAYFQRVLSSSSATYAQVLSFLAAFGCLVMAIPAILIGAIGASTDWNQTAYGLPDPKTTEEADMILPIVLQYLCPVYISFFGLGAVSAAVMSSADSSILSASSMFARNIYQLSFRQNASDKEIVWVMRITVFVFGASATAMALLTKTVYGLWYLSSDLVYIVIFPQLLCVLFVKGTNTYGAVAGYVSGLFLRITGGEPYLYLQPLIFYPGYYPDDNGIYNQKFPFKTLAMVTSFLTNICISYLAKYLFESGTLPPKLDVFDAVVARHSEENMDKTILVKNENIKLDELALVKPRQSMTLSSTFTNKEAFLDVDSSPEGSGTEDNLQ

[13] = target: T1, Muscarinic acetylcholine receptor M1 (Homo sapiens) (UniProt P11229); assay: Agonist activity at human M1 receptor expressed in CHOK1 cells assessed as increase in calcium flux at 10 uM by fluorimetric method relative to control; type: functional, cell-based
T1 sequence (whole entry): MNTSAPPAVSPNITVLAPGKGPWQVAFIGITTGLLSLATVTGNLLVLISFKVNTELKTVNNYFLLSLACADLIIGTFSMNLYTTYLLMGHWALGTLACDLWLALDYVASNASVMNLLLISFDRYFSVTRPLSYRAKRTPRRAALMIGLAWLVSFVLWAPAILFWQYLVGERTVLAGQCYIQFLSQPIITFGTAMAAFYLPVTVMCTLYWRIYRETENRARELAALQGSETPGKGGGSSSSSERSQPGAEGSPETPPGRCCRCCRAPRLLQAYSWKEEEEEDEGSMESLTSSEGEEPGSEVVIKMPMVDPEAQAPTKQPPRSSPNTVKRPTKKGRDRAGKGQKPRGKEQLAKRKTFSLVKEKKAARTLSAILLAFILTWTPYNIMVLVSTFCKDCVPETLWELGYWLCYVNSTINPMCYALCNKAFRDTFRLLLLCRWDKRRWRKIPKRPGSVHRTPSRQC

[14] = target: Alpha-2A adrenergic receptor (Homo sapiens) (UniProt P08913); assay: Agonist activity at recombinant human alpha2a receptor at 10 uM relative to control; type: functional
Sequence of Alpha-2A adrenergic receptor (Homo sapiens) (P08913 whole entry): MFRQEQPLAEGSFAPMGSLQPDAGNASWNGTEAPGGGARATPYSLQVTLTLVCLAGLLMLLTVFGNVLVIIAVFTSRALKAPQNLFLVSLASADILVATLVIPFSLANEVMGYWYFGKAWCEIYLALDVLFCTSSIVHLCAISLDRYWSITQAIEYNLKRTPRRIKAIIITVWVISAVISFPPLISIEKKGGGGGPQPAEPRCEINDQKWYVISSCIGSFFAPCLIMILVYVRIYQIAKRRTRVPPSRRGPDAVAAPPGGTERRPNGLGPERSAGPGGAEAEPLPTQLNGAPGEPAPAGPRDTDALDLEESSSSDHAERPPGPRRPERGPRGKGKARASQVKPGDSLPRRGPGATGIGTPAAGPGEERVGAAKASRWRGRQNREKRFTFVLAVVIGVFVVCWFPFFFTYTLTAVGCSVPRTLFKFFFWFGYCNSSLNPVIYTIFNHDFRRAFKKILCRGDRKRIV

[15] = Volume of distribution at steady state in iv dosed mouse; type: ADME, organism-based; conditions: in vivo, read-out: Vdss
[16] = target: Sodium channel protein type 2 subunit alpha (Homo sapiens, UniProt Q99250); assay: Inhibition of human Nav1.2 expressed in HEK cells by patch clamp electrophysiology method; type: cell-based
[17] = Protein binding in rat plasma assessed as fraction unbound; type: ADME, cell-free
[18] = target: T1, Muscarinic acetylcholine receptor M1 (Homo sapiens); assay: Displacement of [3H]pirenzepine from recombinant human M1 receptor at 10 uM after 60 mins by scintillation counting method
[19] = target: T2, Alpha-1A adrenergic receptor (Homo sapiens) (UniProt P35348); assay: Agonist activity at recombinant human alpha1a receptor expressed in CHOK1 cells assessed as increase in calcium flux at 10 uM by fluorescence assay relative to control; type: functional, cell-based
T2 sequence (whole entry): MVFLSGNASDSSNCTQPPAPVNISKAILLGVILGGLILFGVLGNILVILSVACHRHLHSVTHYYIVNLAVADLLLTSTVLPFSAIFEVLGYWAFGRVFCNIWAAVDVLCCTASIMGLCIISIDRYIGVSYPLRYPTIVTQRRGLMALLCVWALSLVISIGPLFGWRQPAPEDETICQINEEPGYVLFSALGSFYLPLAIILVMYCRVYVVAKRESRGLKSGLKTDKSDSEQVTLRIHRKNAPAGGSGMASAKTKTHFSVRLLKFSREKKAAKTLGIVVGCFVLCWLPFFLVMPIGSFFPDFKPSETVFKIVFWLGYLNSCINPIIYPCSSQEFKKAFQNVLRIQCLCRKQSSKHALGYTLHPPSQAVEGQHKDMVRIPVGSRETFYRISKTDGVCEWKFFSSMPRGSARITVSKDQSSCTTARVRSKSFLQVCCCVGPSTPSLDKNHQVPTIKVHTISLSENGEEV

[20] = target: D(2) dopamine receptor (Homo sapiens) (UniProt P14416); assay: Antagonist activity at recombinant human D2S receptor expressed in HEK293 cells assessed as inhibition of dopamine-induced cell impedance at 10 uM by cellular dielectric spectroscopic method relative to control; type: cell-based
Sequence of D(2) dopamine receptor (Homo sapiens) (P14416 whole entry): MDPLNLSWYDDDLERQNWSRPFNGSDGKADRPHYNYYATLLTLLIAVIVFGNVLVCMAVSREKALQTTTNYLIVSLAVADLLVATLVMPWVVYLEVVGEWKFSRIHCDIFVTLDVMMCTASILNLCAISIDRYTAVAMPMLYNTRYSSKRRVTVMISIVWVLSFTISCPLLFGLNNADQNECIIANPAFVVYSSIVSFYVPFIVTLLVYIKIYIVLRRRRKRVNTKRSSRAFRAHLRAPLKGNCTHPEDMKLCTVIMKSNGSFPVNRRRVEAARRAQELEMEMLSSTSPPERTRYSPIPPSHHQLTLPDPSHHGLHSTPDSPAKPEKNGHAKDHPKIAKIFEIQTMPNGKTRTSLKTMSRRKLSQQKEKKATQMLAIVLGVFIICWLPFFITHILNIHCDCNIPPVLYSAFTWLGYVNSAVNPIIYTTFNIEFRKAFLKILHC

[21] = target: Sodium-dependent dopamine transporter (Homo sapiens, UniProt Q01959); assay: Displacement of [3H]BTCP from recombinant human dopamine transporter after 120 mins by scintillation counting method
Sequence of Sodium-dependent dopamine transporter (Q01959 whole entry): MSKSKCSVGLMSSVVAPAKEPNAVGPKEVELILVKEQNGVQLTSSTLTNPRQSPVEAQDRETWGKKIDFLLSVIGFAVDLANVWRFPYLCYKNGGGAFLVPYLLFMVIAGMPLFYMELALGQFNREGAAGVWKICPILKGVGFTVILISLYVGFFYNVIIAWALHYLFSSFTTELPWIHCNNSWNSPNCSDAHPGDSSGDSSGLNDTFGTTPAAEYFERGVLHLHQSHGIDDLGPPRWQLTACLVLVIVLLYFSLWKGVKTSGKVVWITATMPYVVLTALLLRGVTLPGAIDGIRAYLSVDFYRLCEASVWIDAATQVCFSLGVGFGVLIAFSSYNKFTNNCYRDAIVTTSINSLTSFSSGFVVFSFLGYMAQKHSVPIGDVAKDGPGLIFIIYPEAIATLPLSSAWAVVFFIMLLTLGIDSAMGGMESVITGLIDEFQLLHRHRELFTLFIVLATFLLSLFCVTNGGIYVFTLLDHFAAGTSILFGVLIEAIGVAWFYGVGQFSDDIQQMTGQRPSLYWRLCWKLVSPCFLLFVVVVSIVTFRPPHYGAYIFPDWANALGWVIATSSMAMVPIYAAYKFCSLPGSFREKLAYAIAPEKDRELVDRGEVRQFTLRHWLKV

[22] = Clearance in iv dosed mouse plasma; type: ADME, organism-based
[23] = target: D(2) dopamine receptor (Homo sapiens) (UniProt P14416); assay: Agonist activity at recombinant human D2S receptor expressed in HEK293 cells assessed as effect on impedance at 10 uM by cellular dielectric spectroscopic method relative to control; type: cell-based
[24] = species: Homo sapiens; assay: Displacement of [125I]alpha-bungarotoxin from human muscle type nAChR at 10 uM after 120 mins by scintillation counting method
[25] = target: Vasopressin V1a receptor (Homo sapiens) (UniProt P37288); assay: Agonist activity at human V1A receptor expressed in CHOK1 cells assessed as increase in calcium flux at 10 uM by fluorimetric method relative to control; type: functional, cell-based
[26] = target: Alpha-2B adrenergic receptor (Homo sapiens) (UniProt P18089); assay: Agonist activity at recombinant human alpha2b receptor expressed in HEK293 cells assessed as increase in cAMP accumulation at 10 uM measured after 30 mins by HTRF assay relative to control; type: functional, cell-based
[27] = target: Cholecystokinin receptor type A (Homo sapiens) (UniProt P32238); assay: Agonist activity at recombinant human CCK1 receptor expressed in CHOK1 cells assessed as increase in cAMP accumulation at 10 uM after 30 mins by HTRF assay relative to control
Sequence of Cholecystokinin receptor type A (Homo sapiens) (P32238 whole entry, looked up): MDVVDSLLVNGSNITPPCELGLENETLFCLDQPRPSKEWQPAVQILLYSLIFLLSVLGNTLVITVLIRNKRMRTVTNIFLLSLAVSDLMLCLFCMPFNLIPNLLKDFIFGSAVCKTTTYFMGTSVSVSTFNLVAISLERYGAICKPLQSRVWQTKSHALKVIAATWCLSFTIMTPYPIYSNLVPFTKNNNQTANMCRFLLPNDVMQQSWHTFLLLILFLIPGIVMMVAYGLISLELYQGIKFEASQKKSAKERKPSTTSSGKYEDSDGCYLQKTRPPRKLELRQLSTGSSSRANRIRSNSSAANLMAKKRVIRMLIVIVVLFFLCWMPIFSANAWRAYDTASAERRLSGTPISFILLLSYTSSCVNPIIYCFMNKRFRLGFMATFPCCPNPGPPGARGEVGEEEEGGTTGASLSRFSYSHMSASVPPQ

## N#Cc1cc(S(=O)(=O)Nc2ncns2)ccc1Oc1ccc(-c2cccc(C(F)(F)F)c2)cc1-c1ccnc(CNCCC2CCNCC2)c1
[1]
  CL free: 285.5 L/h/kg
[2]
  inhibition: 85%
[3]
  CL renal at 1 h: 0.00193 L/h/kg
[4]
  IC50: 12.8 µM
[5]
  inhibition: inactive
[6]
  solubility: > 2.57 mg/mL
[7]
  Vd: 0.59 L/kg
[8]
  inhibition: 80%
[9]
  inhibition: -2%
[10]
  Activity: -4%
[11]
  microsomal CLint: < 8 µL/min/mg
[12]
  IC50: 0.12 µM
  Ki: 0.068 µM
[13]
  Activity: 2%
[14]
  Activity: -7%
[15]
  Vd: 0.54 L/kg
[16]
  IC50: 0.00252 to 0.003 µM
[17]
  fraction unbound: 0.00275
[18]
  inhibition: 48%
[19]
  Activity: 7%
[20]
  inhibition: 31%
[21]
  IC50: 4.01 µM
  Ki: 2.12 µM
[22]
  clearance: 2.19 L/h/kg
[23]
  Activity: -2%
[24]
  inhibition: 21%
[25]
  Activity: -4%
[26]
  Activity: -2%
[27]
  Activity: 4%

Reference: ChEMBL document CHEMBL4177603 (Bioorg Med Chem Lett, 2017)
